Data reported in patent US20160002733A1, “ASSESSING RISK FOR ENCEPHALOPATHY INDUCED BY 5-FLUOROURACIL OR CAPECITABINE” (THE BOARD OF TRUSTEES OF THE LELAND STANFORD JUNIOR …, priority 2013, published 2016).
“And” between values parts separate entries of the source, which are not always exact repeats. Identical values can stand only once. Like-named read-outs stand apart in the source and are kept apart here. One block for each molecule: values may come before it.

Key:
[1] = format: in vivo, human; details: for plasma ammonia: male
Description: (§1) Plasma ammonia levels were obtained at Stanford University Medical Center, which followed a strict protocol of immediately placing the blood sample on ice, and then analyzing the sample within 15 minutes. Samples not placed on ice, or analyzed after a longer delay yield artificially elevated plasma ammonia levels due to release of ammonia from erythrocytes and deamination of plasma amino acids (52, 53).
A person with gastric adenocarcinoma underwent subtotal gastrectomy and Roux-en-Y gastrojejunostomy, followed by two cycles of adjuvant carboplatin and capecitabine (1000 mg/m^2 twice a day for 14 days), and then 50 Gy of radiation therapy to the tumor bed with concurrent capecitabine (1000 mg/m^2 twice a day). During each course of capecitabine, they experienced extreme lethargy, without mucositis, diarrhea or hand-foot syndrome.
On the third cycle of carboplatin and capecitabine, self-administered folate 1 mg/d hoping to prevent lethargy. From days 5 to 14 of capecitabine, they became increasingly confused, and then combative and ataxic. Two days after the last capecitabine dose, they were taken to local emergency room for delirium and found to have a normal CT scan of the brain.
After discontinuation of lactulose on discharge from the hospital, plasma ammonia gradually rose and then returned to normal over two months (FIG. 2A). Four months after discharge, mild liver steatosis was noted on CT scan for the first time.
A person with newly diagnosed squamous cell carcinoma of the left tonsil and base of tongue began treatment with docetaxel and cisplatin, followed by a planned 5-day infusion of 5-FU (750 mg/m^2). Past medical history included manic depression treated with valproic acid.
(§2) After 1 day, the infusion 5-FU was held because of diarrhea from C. difficile, which was treated with metronidazole. Two days later, the infusion was resumed. On the third infusion day, the patient developed slurred speech and gait ataxia. On the fifth infusion day, they became delirious and then comatose. MRI and CT scan of the brain, and lumbar puncture were normal. Valproic acid trough levels ([…]) were within therapeutic range, which is sufficient to inhibit N-acetylglutamate synthase (FIG. 1A) and disrupt the urea cycle (11, 12). Despite multiple episodes of diarrhea and a delay of 10 hours following discontinuation of infusion 5-FU, plasma ammonia was elevated at 37 μmol/L. The next day, the patient was alert, and plasma ammonia was 16 μmol/L. The tumor had decreased markedly in size, no longer preventing them from turning their head.
A person with a well-differentiated neuroendocrine tumor of unknown primary began treatment with capecitabine (days 1-14) and temozolomide (days 10-14) after progression of massive liver metastases. […]

[2] = high dose continuous infusion 5-FU; sixteen of 280 patients; cited from earlier work
[3] = Valproic acid trough levels in Patient 2; format: in vivo, human; details: within therapeutic range
Description: as §2

[4] = Prospective measurement of plasma ammonia levels in patients treated with capecitabine; format: in vivo, human
Description: Prospective Measurement of Plasma Ammonia Levels in Patients Treated with Capecitabine
Patients donated whole blood for analysis after providing consent according to a protocol approved by the Stanford University Administrative Panel for the Protection of Human Subjects.
as §1, with “53). […]” for “53).”
Mid-cycle levels were measured after patients had taken capecitabine for 7 to 14 days. […]
To prospectively measure plasma ammonia after capecitabine, we prospectively studied 29 cancer patients (Table 3). […] To estimate baseline plasma ammonia levels, we measured 2 or more levels before the first capecitabine dose or at least 7 days after the previous capecitabine dose.
We monitored changes in cognitive function between baseline and mid-cycle time points with two instruments: a telephone-administered mini-mental status examination, and a patient self-administered questionnaire. […]

SMILES: OC[C@H]1O[C@@H](O[C@@H]2[C@@H](CO)OC(O)(CO)[C@H]2O)[C@H](O)[C@@H](O)[C@H]1O (mixture of isomers) [lactulose]
plasma ammonia with lactulose treatment ([1]; Patient 1 (index case), declined from 158 μmol/L, symptoms resolved): 29 µmol/L

plasma ammonia ([1]; human, in vivo): 16 µmol/L
SMILES: O=c1[nH]cc(F)c(=O)[nH]1 [5-FU, 5-fluorouracil]
patients who suffered encephalopathy with hyperammonemia [2]: 5.7%

Valproic acid trough levels [3]: 45 µg/mL and 68 µg/mL
SMILES: CCCC(CCC)C(=O)O [Valproic acid, valproic acid]

plasma ammonia level ([1]; female, human, in vivo, 7 days after the last capecitabine dose): 158 µmol/L
plasma ammonia ([1]; human, in vivo, 7 days after discontinuing capecitabine): 54 µmol/L
patients with mid-cycle plasma ammonia levels increased above baseline levels ([4]; 29 cancer patients, mid-cycle after 7 to 14 days of capecitabine, by more than 3 or 4 standard deviations (p<0.01 or p<0.001)): 5 of the 29
patients with clinically significant symptoms among those with increased mid-cycle ammonia levels ([4]; of the 5 patients with increased mid-cycle ammonia, cognitive dysfunction, malaise, fatigue, unsteady gait): 2 of the 5
SMILES: CCCCCOC(=O)Nc1nc(=O)n(C2OC(C)C(O)C2O)cc1F (centres unmarked) [capecitabine, pentyl[1-(3,4-dihydroxy-5-methyltetrahydrofuran-2-yl)-5-fluoro-2-oxo-1H-pyrimidin-4-yl]carbamate]
